Patent publication US20220062317A1, “NA+/K+ ATPASE INHIBITORS FOR USE IN THE PREVENTION OR TREATMENT OF METASTASIS” (UNIVERSITÄT BASEL, priority 2018, published 2022)
Where “and” joins values, the source holds several entries; their conditions need not be identical. Equal entries are not always repeated.

How the values were obtained:
BR16 CTC cell line = test: 17-day treatment, WGBS and i-cisTarget analysis of DMRs that gain methylation; format: cell-based, human; conditions: 20 nM
Procedure: (§1) In order to assess the effect of clustering on DNA methylation patterns and proliferation signature directly BR16 and BRx50 cell lines were cultured for 17 days to ensure that at least 4 divisions would take place. This is to allow proper time for DNA methylation remodeling to take place.
(§2) Under these conditions, for both CTC derived cell lines, a subset of cluster-associated hypomethylated DMRs from patient and xenografts regain ≥20% methylation.
(§3) Proteinase K digestion and bisulfite treatment was performed according to manufacturer's instructions for EZ DNA Methylation Direct Kit (Zymo, Cat #D5020). Bisulfite-treated DNA was eluted using 9 μl of Elution Buffer and used for library generation with TruSeq DNA methylation kit (Illumina, Cat #EGMK91396) according to manufacturer's instructions. For amplification, 18 cycles were performed using Failsafe Enzyme (Illumina, Cat #FSE51100) and indexes were introduced with Index Primers' Kit (Illumina, Cat #EGIDX81312). Library purification was performed using Agencourt AMPure XP beads at a ratio of 1:1 according to manufacturer's instructions. To avoid DNA loss during pipetting steps, Corning DeckWork low binding barrier pipet tips were used (Sigma, Cat #CLS4135-4X960EA). Library concentration was estimated using Qubit DS DNA HS Assay Kit according to manufacturer's instructions (Invitrogen, Cat #Q32854).
(§4) An enrichment score (ES) indicates the over- or underrepresentation of a certain object within a sample of many objects (=enrichment). […] A negative enrichment score indicates the opposite, namely that a feature is less present than to be expected by the values of other features in the sample. […] An enrichment score can be normalized by dividing a specific ES by the mean of the enrichment scores for all objects in the dataset to yield a normalized enrichment score (NES). Normalization of the enrichment score accounts for differences in gene set size and in correlations between gene sets and the expression dataset; therefore, a normalized enrichment scores (NES) can be used to compare analysis results across gene sets. Only TFBS with a NES score […] shown in the analysis.

BRx50 CTC cell line = test: as above; format: cell-based, human; conditions: 20 nM
Procedure: as §1, §2, §3, §4

BR16 cells = test: Tail vein injection of in vitro pre-treated BR16 cells, metastasis seeding; format: in vivo, NSG mice
Procedure: To test whether ouabain and digitoxin would also enable CTC clusters disruption in vivo, the inventors took a dual approach. First, the inventors tested whether a 17-day in vitro treatment with ouabain and digitoxin would translate into a reduced ability of the treated cells to efficiently seed metastasis in untreated mice (FIG. 7A). To this end, upon treatment, BR16 cells stably expressing GFP-luciferase were injected into the tail vein of NSG mice and noninvasively monitored through luminescence imaging for their ability to seed and propagate metastatic lesions.
(§5) For tail vein experiments, NOD SCID Gamma (NSG) mice (Jackson Labs) were injected with 1×10^6 BR16-mCherry cells resuspended in 100 μl D-PBS and monitored with IVIS Lumina II (Perkin Elmer). For CTC xenograft mouse model isolation, 1×10^6 LM2-GFP, 1×10^6 BRx50-GFP or 1×10^6 BR16-GFP cells were resuspended in 100 μl of 50% Cultrex PathClear Reduced Growth Factor Basement Membrane Extract (R&D Biosystems, Cat #3533-010-02) in D-PBS and injected orthotopically in NSG mice. Blood draw was performed 4-5 weeks after tumor onset for LM2 cells, 5-6 months after tumor onset for BR16 and 6-7 months after tumor onset for BRx50 cells.

BR16 xenografts = test: BR16 xenograft (mammary fat pad), spontaneous CTC clusters and metastasis; format: in vivo, NSG mice; conditions: ouabain daily for three weeks
Procedure: Blood specimens for CTC analysis were obtained from University Hospital Basel after informed patient consent according to protocol EKNZ BASEC 2016-00067 and EK 321/10, which received ethical approval from the Swiss authorities (EKNZ, Ethics Committee northwest/central Switzerland). An average of 7.5 ml of blood per patient was drawn in EDTA vacutainers. Within 1 hr from blood draw, the blood was processed through Parsortix GEN3D6.5 Cell Separation Cassette (Angle Europe). For mouse studies, blood was retrieved via cardiac puncture and 1 ml of blood was similarly processed through a Parsortix device. Captured CTCs were further stained on Parsortix cassette with EpCAM-AF488 conjugated (CellSignaling, Cat #CST5198), HER2-AF488 (#324410, BioLegend), EGFR-FITC conjugated (GeneTex, Cat #GTX11400) and CD45-BV605 conjugated (Biolegend, Cat #304042 (anti-human); Cat #103140 (anti-mouse)) antibodies. For all other models (xenografts), carrying cancer cells stably expressing a GFP-Luciferase reporter, only anti-CD45 staining was performed, while CTCs were identified based on GFP expression. The number of captured CTCs, including single CTCs, CTC clusters and CTC-WBC clusters, was determined while cells were still in the cassette. CTCs were then released from the cassette in DPBS (#14190169, Gibco) onto ultra-low attachment plates (#3471-COR, Corning). Representative pictures were taken at 40× magnification with Leica DM14000 fluorescent microscope using Leica LAS and analyzed with ImageJ.
as §5

LM2 xenografts = test: LM2 xenograft, spontaneous CTC clusters and metastasis; format: in vivo, NSG mice; conditions: LM2 tumors; ouabain treatment

For `C[C@@H]1O[C@@H](O[C@H]2C[C@@H](O)[C@]3(CO)[C@H]4[C@H](O)C[C@]5(C)[C@@H](C6=CC(=O)OC6)CC[C@]5(O)[C@@H]4CC[C@]3(O)C2)[C@H](O)[C@H](O)[C@H]1O` [ouabain, Ouabain], which “NES score of TFBS BDP1 in DMRs with ≥20% gain in methylation” value (BR16 CTC cell line; 17-day treatment) is on record?
Its value is 5.64.

And the “NES score of TFBS CEBPD in DMRs with ≥20% gain in methylation” value (BR16 CTC cell line; 17-day treatment)?
Its value is 4.05.

And the “NES score of TFBS FOS in DMRs with ≥20% gain in methylation” value (BR16 CTC cell line; 17-day treatment)?
Its value is 7.29 and 6.04.

And the “NES score of TFBS FOXG1/O1 in DMRs with ≥20% gain in methylation” value (BR16 CTC cell line; 17-day treatment)?
Its value is 3.74 and 3.39.

And the “NES score of TFBS HMBOX1 in DMRs with ≥20% gain in methylation” value (BR16 CTC cell line; 17-day treatment)?
Its value is 3.89.

And the “NES score of TFBS HSF1 in DMRs with ≥20% gain in methylation” value (BR16 CTC cell line; 17-day treatment)?
The value was 3.71.

What about the “NES score of TFBS IRF4 in DMRs with ≥20% gain in methylation” value (BR16 CTC cell line; 17-day treatment) of the same compound?
The value was 3.244.

What about the “NES score of TFBS IRX3 in DMRs with ≥20% gain in methylation” value (BR16 CTC cell line; 17-day treatment) of the same compound?
Its value is 3.63.

And the “NES score of TFBS IRX6 in DMRs with ≥20% gain in methylation” value (BR16 CTC cell line; 17-day treatment)?
The value was 3.63.

And the “NES score of TFBS KDM5D in DMRs with ≥20% gain in methylation” value (BR16 CTC cell line; 17-day treatment)?
The value was 3.11.

And the “NES score of TFBS MEIS1 in DMRs with ≥20% gain in methylation” value (BR16 CTC cell line; 17-day treatment)?
Its value is 3.

And the “NES score of TFBS NANOG in DMRs with ≥20% gain in methylation” value (BR16 CTC cell line; 17-day treatment)?
The value was 3.349 and 3.28.

And the “NES score of TFBS OCT4 in DMRs with ≥20% gain in methylation” value (BR16 CTC cell line; 17-day treatment)?
The value was 3.2 and 3.13 and 3.204.

And the “NES score of TFBS SIX4/5 in DMRs with ≥20% gain in methylation” value (BR16 CTC cell line; 17-day treatment)?
The value was 6.27 and 6.16.

And the “NES score of TFBS SOX2 in DMRs with ≥20% gain in methylation” value (BR16 CTC cell line; 17-day treatment)?
The value was 4.82 and 4.51 and 4.24 and 3.28.

And the “NES score of TFBS SOX18 in DMRs with ≥20% gain in methylation” value (BR16 CTC cell line; 17-day treatment)?
Its value is 3.2.

And the “NES score of TFBS SRY in DMRs with ≥20% gain in methylation” value (BR16 CTC cell line; 17-day treatment)?
The value was 6.46 and 6.36.

And the “NES score of TFBS TPPP in DMRs with ≥20% gain in methylation” value (BR16 CTC cell line; 17-day treatment)?
Its value is 3.1.

What about the “NES score of TFBS YAP5 in DMRs with ≥20% gain in methylation” value (BR16 CTC cell line; 17-day treatment) of the same compound?
Its value is 3.55 and 3.08.

What about the “NES score of TFBS YY2 in DMRs with ≥20% gain in methylation” value (BR16 CTC cell line; 17-day treatment) of the same compound?
The value was 6.5,.

And the “NES score of TFBS ZNF274 in DMRs with ≥20% gain in methylation” value (BR16 CTC cell line; 17-day treatment)?
The value was 4.59 and 3.01.

And the “NES score of TFBS ZNF594 in DMRs with ≥20% gain in methylation” value (BR16 CTC cell line; 17-day treatment)?
Its value is 4.84.

What about the “number of DMRs with ≥20% gain in methylation” value (BR16 CTC cell line; 17-day treatment) of the same compound?
Its value is “n = (108)”.

And the “gain of methylation in DMRs containing binding sites for stemness-related TFs” value (BR16 CTC cell line; 17 days)?
Its value is “simultaneously affecting the binding sites of OCT4, SOX2 and NANOG”.

What about the “NES score of TFBS BCL11A in DMRs with ≥20% gain in methylation” value (BRx50 CTC cell line) of the same compound?
The value was 3.8 and 3.69.

And the “NES score of TFBS FOS in DMRs with ≥20% gain in methylation” value (BRx50 CTC cell line)?
Its value is 3.91.

And the “NES score of TFBS FOXG1/O1 in DMRs with ≥20% gain in methylation” value (BRx50 CTC cell line)?
Its value is 3.53 and 3.25 and 3.1.

And the “NES score of TFBS HMBOX1 in DMRs with ≥20% gain in methylation” value (BRx50 CTC cell line)?
The value was 3.35 and 3.30 and 3.22.

And the “NES score of TFBS IRX6 in DMRs with ≥20% gain in methylation” value (BRx50 CTC cell line)?
Its value is 3.8.

What about the “NES score of TFBS MEIS1 in DMRs with ≥20% gain in methylation” value (BRx50 CTC cell line) of the same compound?
The value was 4.09.

What about the “NES score of TFBS NANOG in DMRs with ≥20% gain in methylation” value (BRx50 CTC cell line) of the same compound?
The value was 3.61.

What about the “NES score of TFBS OCT4 in DMRs with ≥20% gain in methylation” value (BRx50 CTC cell line) of the same compound?
The value was 3.42.

What about the “NES score of TFBS RORA in DMRs with ≥20% gain in methylation” value (BRx50 CTC cell line) of the same compound?
Its value is 4.02 and 3.75.

And the “NES score of TFBS SIX4/5 in DMRs with ≥20% gain in methylation” value (BRx50 CTC cell line)?
Its value is 3.87 and 3.65.

And the “NES score of TFBS SOX18 in DMRs with ≥20% gain in methylation” value (BRx50 CTC cell line)?
The value was 3.11.

What about the “NES score of TFBS YY2 in DMRs with ≥20% gain in methylation” value (BRx50 CTC cell line) of the same compound?
The value was 3.56.

And the “NES score of TFBS ZNF493 in DMRs with ≥20% gain in methylation” value (BRx50 CTC cell line)?
Its value is 3.12.

What about the “number of DMRs with ≥20% gain in methylation” value (BRx50 CTC cell line) of the same compound?
Its value is “(n = 121)”.

And the “expression of cleaved caspase 3 compared to control cells” value (BR16 cells; cancer cells in lungs, pre-treated cells, day 1)?
The value was “significant increase”.

What about the “ability of BR16 cells to lodge in the lung tissue immediately after injection (bioluminescence flux)” value (BR16 cells; cells pre-treated 17 days in vitro, 20 nM, tail vein, day 0) of the same compound?
Its value is “did not affect”.

And the “ability to survive during the first day upon arrival (bioluminescence flux)” value (BR16 cells; cells pre-treated 17 days in vitro, 20 nM, tail vein, day 1)?
Its value is “reduced ability to survive”.

What about the metastatic outgrowth (BR16 cells; pre-treated cells, no further treatment in vivo, 72 days upon injection) of the same compound?
The metastatic outgrowth was “delayed metastatic outgrowth”.

And the “frequency of single CTCs” value (BR16 xenografts)?
The value was “increasing the frequency”.

What about the “frequency of spontaneously-generated CTC clusters” value (BR16 xenografts) of the same compound?
Its value is “reduced the frequency”.

What about the “overall CTC numbers” value (BR16 xenografts) of the same compound?
The value was “without altering”.

And the “size of the primary tumor” value (BR16 xenografts)?
The value was “without altering”.

What about the “suppression of the total metastatic burden” value (BR16 xenografts) of the same compound?
The value was 80.7 fold.

And the “CTC clusters (proportion)” value (LM2 xenografts)?
Its value is “decrease in CTC clusters”.

And the “metastatic burden compared to control” value (LM2 xenografts)?
Its value is “reduced metastatic burden”.

What about the “overall CTC numbers” value (LM2 xenografts) of the same compound?
The value was “without any change”.

And the primary tumor size (LM2 xenografts)?
Its primary tumor size is “without any change”.

What about the “proportion of single CTCs” value (LM2 xenografts) of the same compound?
Its value is “increase in the proportion of single CTCs”.
